In data set [1] the test system is Human embryonic kidney (HEK293T) cells. As to conditions: 50 μg/ml (C30: 50 μg/ml or beyond).
The test system of another data set is human erythrocytes. It counts as cell-based. The source says:
The detergent Tween was used as a positive control, causing 100% lysis of RBCs.

For data set [2], the system named is human embryonic kidney cells (HEK293T cell line). As to conditions: concentrations lower than 100 μg/ml; HEK293T.
Description: Alamar blue assay allowed monitoring of the total percentage of cell growth recovery in time in the presence of peptides.
Data set [3] concerns S. aureus. The format is cell-based, Staphylococcus aureus.
The test system of a further data set is bacterial cells. Put plainly: Membrane potential (BacLight kit, DiOC2 red/green fluorescence). It counts as cell-based. Particulars: 25 μg/ml; after 5 minutes.
The next data set relates to S. capitis. Put plainly: MIC, microbroth dilution. As to conditions: planktonic, 18 hours.
Data set [4] in a line: Preliminary in vivo toxicity in rats. Particulars: 1.5 mg/kg and 3 mg/kg, single injection into a tail vein, observed over several days. Here is the method: In order to assess the toxicity of the antibacterial peptide interferors in vivo, eight germ-free fisher male and female rats, weighing approximately ±350 grams were injected with peptide interferor C30 in buffer A: histidine-acetate(pH 6.5) and buffer B phosphate buffer (pH 6.5). Two rats were injected with a concentration of 1.5 mg/kg and two with a concentration of 3 mg/kg. These were single non repeatable injections into a tail vein.

Data set [5] deals with S. aureus.
The test system of another data set is VRE strains. Description: MIC, microbroth dilution. As to conditions: planktonic, 18 hours.
Data set [6] concerns Micrococcus luteus ATCC 9341. Description: MIC, microbroth dilution. As to conditions: planktonic, 18 hours.
Protocol: (§1) Bacteria were grown in a shaking incubator at 37° C. and 160rpm in 50 ml BHI , using individual colonies retrieved from a fresh overnight TSA-sheep blood plate. The cultures were grown to a density of approximately 1×10^8cells/ml and then diluted to 5×10^5 cells/ml in CAMHB (Mc Farland 0.5). Each well contained 100p.I (50p.I of peptide containing MHB plus 50 μl inoculum). The final cell density was 1×10^5 to 5×10^5/ml. After addition of the cell suspension, plates were incubated at 37° C. for 18 to 24 hours. The optical density at 590 nm (OD590) of each well was measured after 5 seconds of shaking the plate using Perkin Elmer spectrophotometer (1420 Multilabel Counter Vicotr 3). […] Each well, where no growth was observed, was also plated on TSA-sheep blood agar plates, incubated at 37° C. overnight and visually inspected.
The next data set concerns Ps. aeruginosa ATCC27853. Put plainly: MIC, microbroth dilution. Particulars: planktonic, 18 hours.
The subject of data set [7] is Candida albicans SC5314. Put plainly: In vitro mature C. albicans biofilm formation on polystyrene (XTT reduction assay). The format is cell-based. As to conditions: 250 μM, 50 μM and 10 μM; peptide during adhesion only or during whole biofilm development; p<0.001. Here is the method:
The initial screening and search for optimal Als3 candidate interferors was based on the C. albicans SC5314 adhesion assay on 96-well polystyrene plates upon administration of all the peptides at three different concentrations (250 μM, 50 μM and 10 μM). Based on the results obtained with this adhesion assay, we also tested the effect of peptides on mature biofilm development. The final election of the most optimal candidate interferor peptides was based on the results showing reduction in adhesion and mature biofilm formation caused by the lowest concentration of the peptide tested (10 μM or 2.5 μM).
In a next step, lower concentrations of peptide F9 (50 μM, 10 μM and 2.5 μM) were also tested. […] Both assays were performed in 96-well polystyrene plates and quantified by the XTT reduction assay (see material and methods section).
In vitro C. albicans biofilm was studied on three different types of biomaterials, namely flat bottom 96-well polystyrene plate (Greiner Bio-One, Germany), silicone (CS Hyde, USA) and polyurethane triple lumen intravenous catheters (2.4mm diameter) (Arrow International Reading, USA). […] After that, the biofilms were washed twice with 1×PBS and quantified.
The metabolic activity of Candida cells within in vitro biofilms was studied using the XTT reduction assay. […] The intensity of colorimetric change was measured by spectrophotometer (Spectra max Plus 384) at 490 nm. […]

For data set [8], the system named is Candida albicans SC5314. Description: C. albicans adhesion on polyurethane catheters (CFU counting). The format is cell-based. As to conditions: 50 μM; adhesion 90 min at 37° C.; control 3.06 ±0.39. Here is the method: In vitro C. albicans biofilm was studied on three different types of biomaterials, namely flat bottom 96-well polystyrene plate (Greiner Bio-One, Germany), silicone (CS Hyde, USA) and polyurethane triple lumen intravenous catheters (2.4mm diameter) (Arrow International Reading, USA). Prior the biofilm set up, silicone was cut into small square pieces (1 cm×1 cm) and polyurethane into 1 cm pieces. Silicone or polyurethane devices were incubated in 99% FBS (F7524, Sigma) overnight at 37° C. Cells were washed and resuspended in 1 x phosphate buffered saline (PBS), pH 7.4. Candida suspension of 1×10^7 cells/ml or 5.10^4 cells/ml was prepared in RPMI1640-MOPS medium, Ssuccinate, pH 6.5 or in YNB medium, 4% D-glucose. In total, 1 ml of the cell suspension was added to the silicone discs or polyurethane catheters placed in 24 well plate and 100 μl of cell suspension was inoculated into 96-well polystyrene plate. The attachment of the cells to a substrate was achieved by incubation at 37° C., for 90 min under static conditions (period of adhesion). […] After that, the biofilms were washed twice with 1×PBS and quantified.
The amount of fungal biofilm biomass formed inside the catheter lumen of in vitro and in vivo explanted catheters was determined by colony forming units (CFU). […] CFUs were counted after two days at 37° C.

The source of these data is US20220033448A1, “METHODS FOR AGGREGATION OF PROTEINS” (priority 2011, published 2022).

Where two headings read alike, the source gives them in different places. No end group written: not given here. A value given as a limit tells only on which side of the number the result lay.

Protocol for Ps. aeruginosa ATCC27853: as §1
Protocol for S. capitis: as §1
Protocol for VRE strains: as §1

As to RILLGLIRRGSRILLGLIRR [C30], in data set [1], the LDH release result was “higher than 50%”. Also, in the data set with human erythrocytes, the “HD50 (concentration at which 50% of red blood cells are lysed)” value was 25 to 50 µg/mL. Moreover, the “viability of mammalian cells” value in data set [2] was “viability of mammalian cells is not significantly affected”. Further, the “onset of resistance compared with common antibiotics” value in the data set on S. aureus [3] (S. aureus ATCC, broth microdilution, 4 duplicates) is “much slower onset of resistance than Ampicillin”. In addition, in the data set with S. aureus [3] (S. aureus clinical strain MRSA 204, passaged at half the MIC over 15 days), the “fold elevation of the MIC” value is reported as 2 fold. Further, the “membrane potential (MP) change” value in the data set on bacterial cells is reported as “full depolarization of the MP”. The MIC entry in the data set on S. capitis is “S. capitis: 1.5 μg/ml”; against S. aureus [5] it was 6 mg/L; against S. aureus [5] (MRSA 115, planktonic, 18 hours), “MRSA 115: 6 μg/ml”; against S. aureus [5] (MRSA 165, planktonic, 18 hours) it was “MRSA 165: 3 μg/ml”; with S. aureus [5] (MRSA 204, planktonic, 18 hours) it was “MRSA 204: 6 μg/ml”; in the data set on S. aureus [5] (MRSA 274, planktonic, 18 hours), “MRSA 274: 3 μg/ml”. Moreover, the MIC entry is on record as “MRSA 351: 3 μg/ml” in the data set with S. aureus [5] (MRSA 351, planktonic, 18 hours); “MRSA 418: 6 μg/ml” in the data set with S. aureus [5] (MRSA 418, planktonic, 18 hours); “MRSA 651: 3 μg/ml” in the data set on S. aureus [5] (MRSA 651, planktonic, 18 hours); “S. aureus ATCC29213: 3 μg/ml” with S. aureus [5] (S. aureus ATCC29213, planktonic, 18 hours); “VRE 8: 3 μg/ml” in the data set on VRE strains (VRE 8); “VRE 11: 1.5 μg/ml” against VRE strains (VRE 11). The MIC result in the data set on VRE strains (VRE 12) is reported as “VRE 12: 12.5 μg/ml”; against VRE strains (VRE 40), “VRE 40: 3 μg/ml”; in the data set with VRE strains (VRE 54) it was “VRE 54: 3 μg/ml”; against VRE strains (VRE 60), “VRE 60: 3 μg/ml”; against VRE strains (VRE 70), “VRE 70: 1.5 μg/ml”; in [6], “Micrococcus luteus ATCC 9341: 3 μg/ml”. Further, the MIC result against Ps. aeruginosa ATCC27853 is reported as “Ps. aeruginosa ATCC27853: >100 μg/ml”. Further, the “mortality and side effects” value in [4] is “no mortality nor any other side effects were apparently visible”. In the data set with S. aureus [5], the “MIC in presence of 50% FBS” value is 50 mg/L. For the same sequence, the “maximal increase of the MIC” value with MRSA strain 326 (31 days, concentration in medium adjusted to MIC of previous day) is on record as at most 4 fold. Also, in the data set on MRSA strain 326 (day 31), the “MIC on the last day of the experiment” value is reported as 12,5 μg/ml.

With RKLLFNLGSRNGIVIVATTR [F9], the “biofilm formation (metabolic activity compared to control)” value in the data set on Candida albicans SC5314 [7] is “significant reduction in biofilm formation”. Moreover, the “attachment to polyurethane devices” value with Candida albicans SC5314 [8] is on record as 2.18 ±0.12 logio CFU/catheter fragment.
